Experimental data taken from patent US20140170768A1, “METHOD FOR MONITORING AND ASSESSING PITUITARY FUNCTION” (priority 2012, published 2014).

Experiments:
Assay type in all cases: in vivo, human
[1] = test system: patients with Cushing's disease; assay: Case One: ACTH and cortisol response to mifepristone in Cushing's disease patients after transphenoidal surgery, with or without radiation therapy
Text: (§1) Hypercortisolism can result from excessive pituitary ACTH secretion, ectopic ACTH synthesis, overproduction of cortisol by an adrenal tumor, and rarely by extra-hypothalamic CRH production. Identifying the cause of excess cortisol production relies upon the sensitivity of pituitary-dependent ACTH secretion to inhibition by pharmacologic doses of dexamethasone. Mifepristone is a glucocorticoid receptor antagonist approved for the treatment of hyperglycemia in patients with Cushing's disease. It was hypothesized that mifepristone, by blocking glucocorticoid receptors, could be used to identify patients with pituitary-dependent hypercortisolism (i.e., Cushing's disease), as ACTH and cortisol levels should rise in these patients following mifepristone administration, while ACTH and cortisol should not change following mifepristone administration in patients with ectopic ACTH or primary adrenal disease (i.e., Cushing's syndrome). To test this hypothesis, patients with either Cushing's Disease or Cushing's Syndrome were administered mifepristone and monitored under the following conditions. Data are presented relating to ACTH and cortisol responses in patients with Cushing's disease following transphenoidal surgery (n=18) (i.e., surgery in which surgical instruments are inserted into part of the brain by going through the nose and the sphenoid bone (a butterfly-shaped bone at the base of the skull) in order to remove tumors of the pituitary gland), patients with Cushing's disease following transphenoidal surgery and pituitary radiation therapy (n=23), and patients with Cushing's syndrome secondary to ectopic ACTH secretion (n=4). All patients received mifepristone 300 mg orally per day. ACTH and cortisol were measured as close to 8 AM as possible using a centralized laboratory (Quest Diagnostics, Collegeville, Pa.) 14 days after commencing mifepristone therapy.

[2] = test system: person with recurrent Cushing's disease; assay: Case Two: ACTH and cortisol before and after a single mifepristone dose in recurrent Cushing's disease; details: 8 AM the morning following a 300 mg dose
Description: A person with recurrent Cushing's disease following pituitary surgery received a dose of 300 mg mifepristone. ACTH and cortisol were measured at 8 AM prior to and at 8 AM the morning following the dose of mifepristone.

[3] = test system: person with adrenal insufficiency; assay: Case Three: ACTH and cortisol before and after a single mifepristone dose in adrenal insufficiency; details: 8 AM on the day after a single 300 mg dose
Description: ACTH and cortisol levels were low (ACTH<[…] and cortisol 2.4 micrograms/deciliter following exogenous ACTH administration). Based upon the finding of both low ACTH and cortisol, the cause of their adrenal insufficiency could be due to pituitary or to hypothalamic disease. […] ACTH and cortisol were measured at 8 AM on the day after they received a single dose of 300 mg mifepristone.

[4] = test system: patients with Cushing's syndrome secondary to ectopic ACTH secretion; assay: Case One: ACTH and cortisol response to mifepristone in Cushing's syndrome secondary to ectopic ACTH secretion
Text: as §1

[5] = Cushing's disease after surgery and radiation therapy, Day 14 vs Day 0, mifepristone 300 mg/day orally
[6] = Cushing's disease, no radiation therapy, Day 14 vs Day 0, mifepristone 300 mg/day orally
[7] = Cushing's syndrome due to ectopic ACTH, Day 14 vs Day 0, NS

For `CC#C[C@]1(O)CC[C@H]2[C@@H]3CCC4=CC(=O)CCC4=C3[C@@H](c3ccc(N(C)C)cc3)C[C@@]21C` [mifepristone], the “ACTH s/p RT, Fold change” value [1, 5] was 1.40 ± .45, the “cortisol s/p RT, Fold change” value [1, 5] was 1.24 ± .23 and the “rise in ACTH and cortisol, no radiation therapy versus radiation therapy” value ([1]; Cushing's disease no RT compared with s/p RT, mifepristone 300 mg/day, 14 days) was “significantly greater rise”. For the same molecule, the “ACTH no RT, Fold change” value [1, 6] was 2.13 ± .96, the “cortisol no RT, Fold change” value [1, 6] was 1.56 ± .6 and the “cortisol Post-mifepristone” value ([2]; pre-mifepristone 19.7) was 32.9 micrograms/deciliter. The “ACTH Post-mifepristone” value ([2]; pre-mifepristone 84) was 129 picograms/ml plasma, the “cortisol Post-mifepristone” value ([3]; pre-mifepristone 2.1) was 11.3 micrograms/deciliter and the “ACTH Post-mifepristone” value ([3]; pre-mifepristone <5) was 13 picograms/ml plasma. For the same molecule, the “ACTH, Fold change” value [4, 7] was 1.75 ± .75, the “cortisol, Fold change” value [4, 7] was 1.21 ± .79 and the “change in ACTH or cortisol following mifepristone therapy” value ([4]; patients with ectopic ACTH, mifepristone 300 mg/day, 14 days) was “substantially no significant change”.
